{
  "source": "paper PMC9505732",
  "about": "“Chemistry and Bioactivity of the Deep-Water Antarctic Octocoral Alcyonium sp” (Marine Drugs, 2022)",
  "key": {"[1]": {"system": "ESKAPE panel of bacterial pathogens", "assay": "ESKAPE panel antibacterial screen", "assay_type": "cell-based"}, "C. difficile UK6": {"system": "C. difficile UK6", "assay": "microbe, parasite or virus in culture", "assay_type": "cell-based, Clostridium difficile", "details": "Clostridioides difficile, UK6, 48 h, read-out: MIC against C. difficile", "method": "The screening against C. difficile was performed in two steps. In step 1, overnight culture of a hyper-virulent clinical strain C. difficile UK6 was inoculated into a fresh BHIS medium at a volume ratio of 1:1000. After pre-incubation at 37 °C under an anaerobic atmosphere for 2 h, the bacterial culture was divided into a sterile 96-well plate and each well contained 192 μL of bacterial culture. Then, 8 μL of each extract was added to each well of the plate, mixed thoroughly, and incubated at 37 °C in an anaerobic chamber for 48 h. Control groups of 200 μL of BHIS medium only, 200 μL of bacterial culture only, and 192 μL of bacterial culture in 8 μL of DMSO were also included in separate columns within each plate. […] Serial dilutions of each extract (400 μg/mL, 200 μg/mL, 100 μg/mL, 50 μg/mL, 20 μg/mL, 10 μg/mL, 5 μg/mL, and 2 μg/mL) were prepared in a fresh BHIS medium. Then, 100 μL of each extract dilution was added to 100 μL of bacterial culture (pretreated as described), mixed well, and incubated at 37 °C in an anaerobic chamber for 48 h. Control groups including wells containing fresh medium only and bacterial culture only were also included as described. Activity was determined as +/− (clear or turbid (OD600) culture). The MICs of the three recommended antibiotics metronidazole, vancomycin, and fidaxomicin against C. difficile UK6 were also determined using broth microdilution methodology."}, "[2]": {"assay": "MTT cytotoxicity toward human kidney cells", "assay_type": "cell-based", "details": "human, HEK293T cells; host cell line HEK293T, MTT, 24 h incubation", "method": "(§1) The cytotoxicity of the metabolites to human liver cells and kidney cells was determined using an MTT based-In Vitro Toxicology Assay Kit (Sigma–Aldrich, St. Louis, MO, USA) following the manufacturing instructions. The human kidney HEK293T cells and the human liver HEPGZ cells were used for the evaluation in this study. Both cell samples were maintained and suspended in Dulbecco’s Modified Eagle Medium (DMEM with 4.5 g/L glucose, L-glutamine and sodium pyruvate, Corning, Manassas, VA, USA) containing 10% fetal bovine serum (Thermo Scientific) and 1% penicillin/streptomycin at 37 °C under 5% CO2 atmosphere. The cells were plated on a 96-well plate with approximately 5 × 10^3–1 × 10^4 cells in each well, and incubated at 37 °C overnight. After that, each of the selected extracts from the antimicrobial susceptibility test was added to the wells and incubated with the cells at a series of 2-fold diluted concentrations ranging from 128 μg/mL to 0.125 μg/mL. […] After that, the liquid in each well of the plate was removed carefully and thoroughly, then the cells in the wells were treated with 100 μL of DMSO, and incubated at 37 °C for 15 m. […] Bio Tek Instruments, Inc. Winooski VT). Cells treated with vancomycin, a common option for treating CDI in clinical settings, were also included in the MTT tests as a control. Cell survival and the IC50 were calculated according to the method used in a previous publication: Survival of cells (%) = Drug-treated group OD540/control group OD540 × 100. The IC50 value was calculated as follows: lgIC50 = Xm − I [P − (3 − Pm − Pn)/4], where Xm was the log maximum dose, I was the log (maximum dose/adjacent dose), P was the sum of the positive response rate, Pm was the maximum positive response rate, and Pn was the minimum positive response rate."}, "[3]": {"assay": "MTT cytotoxicity toward human liver cells", "assay_type": "cell-based", "details": "human, HepG2 cells; host cell line HepG2, MTT, 24 h incubation", "method": "as §1"}, "Leishmania donovani": {"system": "Leishmania donovani", "assay": "Leishmania donovani infected macrophage assay", "assay_type": "cell-based", "details": "read-out: IC50 against Leishmania donovani", "method": "(§2) The Leishmania donovani infected macrophage assay and cytotoxicity screen were conducted as previously described."}, "[4]": {"assay": "Cytotoxicity screen against Leishmania host cell line", "assay_type": "cell-based", "details": "mouse, J774.A1 macrophages", "method": "as §2"}, "HEK293T cells": {"system": "HEK293T cells", "assay": "MTT cytotoxicity toward human kidney cells", "assay_type": "cell-based", "details": "at the same concentrations alcyopterosins were assayed", "method": "as §1"}, "HepG2 cells": {"system": "HepG2 cells", "assay": "MTT cytotoxicity toward human liver cells", "assay_type": "cell-based", "details": "at the same concentrations alcyopterosins were assayed", "method": "as §1"}},
  "data": [
    {"smiles": "Cc1cc2c(c3c1[C@@H](CO[N+](=O)[O-])OC3=O)CC(C)(C)C2", "note": "[Alcyopterosin E]", "values": [
      {"measurement": "activity against the ESKAPE panel of bacterial pathogens", "setting": "[1]", "value": "inactive"},
      {"measurement": "MIC", "setting": "C. difficile UK6", "value": 6.9, "unit": "µM"},
      {"measurement": "CC50 at 24 h", "setting": "[2]", "value": 570, "unit": "µM"},
      {"measurement": "CC50 at 24 h", "setting": "[3]", "value": 331, "unit": "µM"},
      {"measurement": "IC50", "setting": "Leishmania donovani", "value": 3.1, "unit": "µM"},
      {"measurement": "IC50", "setting": "[4]", "value": 62, "unit": "µM"}
    ]},
    {"smiles": "CC(=O)O[C@@H]1[C@H](OC(C)=O)[C@H]([C@H](C)CCCC(C)C)[C@@]2(C)C[C@@H](OC(C)=O)[C@H]3[C@@H](C[C@@H](O)[C@H]4CC=CC(=O)[C@]34C)[C@H]12", "note": "[alcyosterone]", "values": [
      {"measurement": "activity against the ESKAPE panel of bacterial pathogens", "setting": "[1]", "value": "inactive"},
      {"measurement": "IC50", "setting": "Leishmania donovani", "value": 1.5, "unit": "µM"}
    ]},
    {"smiles": "Cc1cc2c(c3c1[C@@H](CO)OC3=O)CC(C)(C)C2", "note": "[Alcyopterosin V]", "values": [
      {"measurement": "activity against the ESKAPE panel of bacterial pathogens", "setting": "[1]", "value": "inactive"},
      {"measurement": "MIC", "setting": "C. difficile UK6", "value": 8.1, "unit": "µM"},
      {"measurement": "CC50 at 24 h", "setting": "[2]", "value": 220, "unit": "µM"},
      {"measurement": "CC50 at 24 h", "setting": "[3]", "value": 288, "unit": "µM"},
      {"measurement": "IC50", "setting": "Leishmania donovani", "value": 7, "unit": "µM"},
      {"measurement": "IC50", "setting": "[4]", "value": 110, "unit": "µM"}
    ]},
    {"smiles": "CCCCCCCCCCCCCCCCOP(=O)([O-])OCC[N+](C)(C)C", "note": "[miltefosine, reference compound]", "values": [
      {"measurement": "IC50", "setting": "Leishmania donovani", "value": 6.2, "unit": "µM"}
    ]},
    {"smiles": "CC(=O)OCCc1c(C)cc2c(c1COC(C)=O)CC(C)(C)C2", "note": "[4,12-Bis(acetyl)alcyopterosin O, 4,12-bis(acetyl)alcyopterosin O]", "values": [
      {"measurement": "IC50", "setting": "Leishmania donovani", "value": 1.2, "unit": "µM"}
    ]},
    {"smiles": "CN[C@H](CC(C)C)C(=O)N[C@H]1C(=O)N[C@@H](CC(N)=O)C(=O)N[C@H]2C(=O)N[C@H]3C(=O)N[C@H](C(=O)N[C@H](C(=O)O)c4cc(O)cc(O)c4-c4cc3ccc4O)[C@H](O)c3ccc(c(Cl)c3)Oc3cc2cc(c3O[C@@H]2O[C@H](CO)[C@@H](O)[C@H](O)[C@H]2O[C@H]2C[C@](C)(N)[C@H](O)[C@H](C)O2)Oc2ccc(cc2Cl)[C@H]1O", "note": "[Vancomycin, reference compound]", "values": [
      {"measurement": "MIC", "setting": "C. difficile UK6", "value": 0.34, "unit": "µM"},
      {"measurement": "toxicity to host cells HEK293T", "setting": "HEK293T cells", "value": "non-toxic"},
      {"measurement": "toxicity to host cells HepG2", "setting": "HepG2 cells", "value": "non-toxic"}
    ]},
    {"smiles": "Cc1cc2c(c(C)c1CCO[N+](=O)[O-])CC(C)(C)C2=O", "note": "[alcyopterosin C]", "values": [
      {"measurement": "IC50", "setting": "Leishmania donovani", "value": 13, "unit": "µM"}
    ]},
    {"smiles": "Cc1cc2c(c3c1[C@@H](CCl)OC3=O)CC(C)(C)[C@@H]2O", "note": "[alcyopterosin L]", "values": [
      {"measurement": "IC50", "setting": "Leishmania donovani", "value": 2.4, "unit": "µM"}
    ]}
  ]
}
